EP4678629A1, “IONIZABLE LIPID MOLECULE, PREPARATION METHOD THEREFOR AND USE THEREOF” (Maxirna (Shanghai) Pharmaceutical Co., Ltd., priority 2023, dated 2024)

Columns and labels:
[1] = Size and polydispersity index (PDI) of the lipid nanoparticle by dynamic light scattering; assay type: physicochemical; conditions: LNP encapsulating eGFP mRNA, ionizable lipid/DOPE/cholesterol/DMG-PEG2000 50/10/48.25/1.25 mol%, N/P 12; for Particle size: in nm (unit assumed)
Method in brief: (§1)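 LNPs were made by microfluidic mixing of ionizable lipid/DOPE/cholesterol/DMG-PEG2000 (50/10/48.25/1.25 mol%) in ethanol with eGFP mRNA in 20 mM citrate pH 6.1, N/P 12, then ultrafiltered into DPBS and 0.2 µm filtered. Size and PDI by DLS at 173° backscatter; encapsulation by Ribogreen.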

[2] = Encapsulation efficiency of the lipid nanoparticle (eGFP mRNA) by Ribogreen method; assay type: physicochemical; conditions: LNP encapsulating eGFP mRNA, ionizable lipid/DOPE/cholesterol/DMG-PEG2000 50/10/48.25/1.25 mol%, N/P 12
Method in brief: as §1

[3] = In vitro transfection of cells with eGFP-mRNA lipid nanoparticle (LNP preparation), fluorescence imaging and flow cytometry; assay type: cell-based, mouse; conditions: mouse, dc2.4 cells, 200 ng of mRNA per well, after 24 hours; read-out: Cell viability, %
Method in brief: (§2)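 Mouse bone marrow-derived DC2.4 dendritic cells seeded at 2 × 10^5 cells/well in DMEM with 10% FBS, transfected with eGFP-mRNA LNPs the next day at 37 °C, 5% CO2. After 24 hours, viability, eGFP-positive rate and mean fluorescence intensity read by fluorescence imaging and flow cytometry.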

[4] = system: DC2.4 cells; test: as above; assay type: cell-based, mouse; conditions: eGFP positivity rate, DC2.4 cells, 200 ng of mRNA per well, after 24 hours
Method in brief: as §2

| SMILES | PDI [1] | Particle size [1] | Encapsulation rate, % [2] [%] | viability at 24 h [3] [%] | Positive rate, % [4] [%] |
| --- | --- | --- | --- | --- | --- |
| CCCCCCCCCCCOC(=O)CN(CCO)CCCN(CC(=O)OCCCCCCCCCCC)CC(=O)OCCCCCCCCCCC [Example 73, Diundecyl 2,2'-((3-((2-hydroxyethyl)(2-oxo-2-(undecyloxy)ethyl)amino)propyl)azanediyl)diacetate] | – | 85.54 | 85.54 | 84.1 | 97.94 |
| CCCCCCCCCCCOC(=O)CN(CCCO)CCCN(CC(=O)OCCCCCCCCCCC)CC(=O)OCCCCCCCCCCC [Example 74, Diundecyl 2,2'-((3-((3-hydroxypropyl)(2-oxo-2-(undecyloxy)ethyl)amino)propyl)azanediyl)diacetate] | – | 96.91 | 96.91 | 71 | 91.81 |
| CCCCCCCCCCCOC(=O)CN(CCCCO)CCCN(CC(=O)OCCCCCCCCCCC)CC(=O)OCCCCCCCCCCC [Example 75, Diundecyl 2,2'-((3-((4-hydroxybutyl)(2-oxo-2-(undecyloxy)ethyl)amino)propyl)azanediyl)diacetate] | 60.95 | 99.22 | 99.22 | 90.3 | 91.29 |
| CCCCCCCCCCCCCOC(=O)CN(CCCO)CCCN(CC(=O)OCCCCCCCCCCCCC)CC(=O)OCCCCCCCCCCCCC [Example 77, Ditridecyl 2,2'-((3-((3-hydroxypropyl)(2-oxo-2-(tridecyloxy)ethyl)amino)propyl)azanediyl)diacetate] | 70.33 | 99.78 | 99.78 | 83.9 | 90.71 |
| CCCCCCCCCCCCCOC(=O)CN(CCCCO)CCCN(CC(=O)OCCCCCCCCCCCCC)CC(=O)OCCCCCCCCCCCCC [Example 78, Ditridecyl 2,2'-((3-((4-hydroxybutyl)(2-oxo-2-(tridecyloxy)ethyl)amino)propyl)azanediyl)diacetate] | 53.66 | 99.86 | 99.86 | 91.7 | 81.35 |
| CCCCC/C=C\C/C=C\CCCCCCCCOC(=O)CCCN(CCO)CCCN(CCCC(=O)OCCCCCCCC/C=C\C/C=C\CCCCC)CCCC(=O)OCCCCCCCC/C=C\C/C=C\CCCCC [Example 80, Di((9Z,12Z)-octadeca-9,12-dien-1-yl)4,4'-((3-((2-hydroxyethyl)(4-(((9Z,12Z)-octadeca-9,12-dien-1-yl)oxo)-4-oxobutyl)amino)propyl)azanediyl)dibutanoate] | – | 99.14 | 99.14 | 87.3 | 94.60 |
| CCCCC/C=C\C/C=C\CCCCCCCCOC(=O)CCCCCCCN(CCCO)CCCN(CCCCCCCC(=O)OCCCCCCCC/C=C\C/C=C\CCCCC)CCCCCCCC(=O)OCCCCCCCC/C=C\C/C=C\CCCCC [Example 95] | 0.11 | – | 92.93 | 95.9 | 93.13 |
| CCCCCCCCCCCOC(=O)CCCCCCCN(CCCCCCCC(=O)OCCCCCCCCCCC)CCCN(CCCO)CCCN(CCCCCCCC(=O)OCCCCCCCCCCC)CCCCCCCC(=O)OCCCCCCCCCCC [Example 98, Tetraundecyl 8,8',8",8"-(((3-hydroxypropyl)azanediyl)di(propane-3,1-diyl))di(azanetriyl)tetraoctanoate] | 0.14 | 89.51 | 91.32 | 96.9 | 92.36 |

Continued, in another order:

| PDI [1] | Particle size [1] | Encapsulation rate, % [2] [%] | SMILES | viability at 24 h [3] [%] | Positive rate, % [4] [%] |
| --- | --- | --- | --- | --- | --- |
| 85.88 | 98.30 | 98.30 | CCCCCCCCCCCCCOC(=O)CCN(CCCO)CCCN(CCC(=O)OCCCCCCCCCCCCC)CCC(=O)OCCCCCCCCCCCCC [Example 71, Ditridecyl 3,3'-((3-((3-hydroxypropyl)(3-oxo-3-(tridecyloxy)propyl)amino)propyl)azanediyl)dipropionate] | 97.3 | 98.99 |
| – | 99.70 | 99.70 | CCCCCCCCCCCCCOC(=O)CCN(CCCCO)CCCN(CCC(=O)OCCCCCCCCCCCCC)CCC(=O)OCCCCCCCCCCCCC [Example 72, Ditridecyl 3,3'-((3-((4-hydroxybutyl)(3-oxo-3-(tridecyloxy)propyl)amino)propyl)azanediyl)dipropionate] | 84 | 81.19 |
| – | 74.60 | 96.23 | CCCCCCCCCCCCCOC(=O)CN(CCO)CCCN(CC(=O)OCCCCCCCCCCCCC)CC(=O)OCCCCCCCCCCCCC [Example 76, Ditridecyl 2,2'-((3-((2-hydroxyethyl)(2-oxo-2-(tridecyloxy)ethyl)amino)propyl)azanediyl)diacetate] | 95 | 98.01 |
| 92.91 | 99.74 | 99.74 | CCCCCCCCCCCOC(=O)CCCN(CCCO)CCCCN(CCCC(=O)OCCCCCCCCCCC)CCCC(=O)OCCCCCCCCCCC [Example 82, Diundecyl 4,4'-((4-((3-hydroxypropyl)(4-oxo-4-(undecyloxy)butyl)amino)butyl)azanediyl)dibutanoate] | 76 | 96.72 |
| 73.54 | 99.79 | 99.79 | CCCCCCCCCCCOC(=O)CCCN(CCCO)CCCCCN(CCCC(=O)OCCCCCCCCCCC)CCCC(=O)OCCCCCCCCCCC [Example 83] | 84.2 | 97.05 |
| 0.13 | 88.62 | 94.50 | CCCCCCCCCCOC(=O)CCCN(CCCO)CCCCN(CCCC(=O)OCCCCCCCCCC)CCCC(=O)OCCCCCCCCCC [Example 86] | 93 | 94.18 |
| 0.12 | 72.55 | 92.26 | CCCCCCCCCCCOC(=O)CCCN(CCO)CCCCN(CCCC(=O)OCCCCCCCCCCC)CCCC(=O)OCCCCCCCCCCC [Example 87] | 97.5 | 96.15 |
| 0.17 | 98.21 | 93.28 | CCCCCCCCCCOC(=O)CCCN(CCO)CCCN(CCCC(=O)OCCCCCCCCCC)CCCC(=O)OCCCCCCCCCC [Example 93, Decyl 4-(20-(2-hydroxyethyl)-12,24-dioxo-16,20-diaza-11,25-dioxapentatriacontane-16-yl)butanoate] | 82.6 | 85.37 |
| 0.19 | – | 96.63 | CCCCCCCCCCCCOC(=O)CCCN(CCO)CCCN(CCCC(=O)OCCCCCCCCCCCC)CCCC(=O)OCCCCCCCCCCCC [Example 94, Dodecyl 4-(22-(2-hydroxyethyl)-14,26-dioxo-18,22-diaza-13,27-dioxanonatriacontane-18-yl)butanoate] | 98.6 | 88.07 |
| 0.16 | – | 92.32 | CCCCCCCCCCCCCOC(=O)CCCN(CCCO)CCCCCN(CCCC(=O)OCCCCCCCCCCCCC)CCCC(=O)OCCCCCCCCCCCCC [Example 100, 4,4'-ditridecyl((5-((3-hydroxypropyl)(4-oxo-4-(tridecyloxy)butyl)amino)pentyl)azetidinyl)dibutanoate] | 99 | 93.24 |
